Laboratory results as given in patent publication US11993599B2, “Therapeutic compounds” (Genentech, Inc., priority 2021, dated 2024).

Experiments:
[1] = biological target: T1, BRG1 (Homo sapiens, UniProt P51532); experiment: Immunofluorescence assay for BRG1 degradation in SW1573 cells; type: cell-based; settings: 20 hours incubation; for DC50: immunofluorescence mean nuclear signal, read-out: BRG1 IF Degradation IC50; for Dmax: SW1573, 20 h, normalized to a known degrader control, read-out: BRG1 IF Degradation Sinf (%)
T1 construct: either BRM primary antibody (Cell signaling Cat #11966) or BRG primary antibody (Abcam, ab 110641); endogenous in cells; host or cells: SW1573
T1 sequence (P51532 whole entry): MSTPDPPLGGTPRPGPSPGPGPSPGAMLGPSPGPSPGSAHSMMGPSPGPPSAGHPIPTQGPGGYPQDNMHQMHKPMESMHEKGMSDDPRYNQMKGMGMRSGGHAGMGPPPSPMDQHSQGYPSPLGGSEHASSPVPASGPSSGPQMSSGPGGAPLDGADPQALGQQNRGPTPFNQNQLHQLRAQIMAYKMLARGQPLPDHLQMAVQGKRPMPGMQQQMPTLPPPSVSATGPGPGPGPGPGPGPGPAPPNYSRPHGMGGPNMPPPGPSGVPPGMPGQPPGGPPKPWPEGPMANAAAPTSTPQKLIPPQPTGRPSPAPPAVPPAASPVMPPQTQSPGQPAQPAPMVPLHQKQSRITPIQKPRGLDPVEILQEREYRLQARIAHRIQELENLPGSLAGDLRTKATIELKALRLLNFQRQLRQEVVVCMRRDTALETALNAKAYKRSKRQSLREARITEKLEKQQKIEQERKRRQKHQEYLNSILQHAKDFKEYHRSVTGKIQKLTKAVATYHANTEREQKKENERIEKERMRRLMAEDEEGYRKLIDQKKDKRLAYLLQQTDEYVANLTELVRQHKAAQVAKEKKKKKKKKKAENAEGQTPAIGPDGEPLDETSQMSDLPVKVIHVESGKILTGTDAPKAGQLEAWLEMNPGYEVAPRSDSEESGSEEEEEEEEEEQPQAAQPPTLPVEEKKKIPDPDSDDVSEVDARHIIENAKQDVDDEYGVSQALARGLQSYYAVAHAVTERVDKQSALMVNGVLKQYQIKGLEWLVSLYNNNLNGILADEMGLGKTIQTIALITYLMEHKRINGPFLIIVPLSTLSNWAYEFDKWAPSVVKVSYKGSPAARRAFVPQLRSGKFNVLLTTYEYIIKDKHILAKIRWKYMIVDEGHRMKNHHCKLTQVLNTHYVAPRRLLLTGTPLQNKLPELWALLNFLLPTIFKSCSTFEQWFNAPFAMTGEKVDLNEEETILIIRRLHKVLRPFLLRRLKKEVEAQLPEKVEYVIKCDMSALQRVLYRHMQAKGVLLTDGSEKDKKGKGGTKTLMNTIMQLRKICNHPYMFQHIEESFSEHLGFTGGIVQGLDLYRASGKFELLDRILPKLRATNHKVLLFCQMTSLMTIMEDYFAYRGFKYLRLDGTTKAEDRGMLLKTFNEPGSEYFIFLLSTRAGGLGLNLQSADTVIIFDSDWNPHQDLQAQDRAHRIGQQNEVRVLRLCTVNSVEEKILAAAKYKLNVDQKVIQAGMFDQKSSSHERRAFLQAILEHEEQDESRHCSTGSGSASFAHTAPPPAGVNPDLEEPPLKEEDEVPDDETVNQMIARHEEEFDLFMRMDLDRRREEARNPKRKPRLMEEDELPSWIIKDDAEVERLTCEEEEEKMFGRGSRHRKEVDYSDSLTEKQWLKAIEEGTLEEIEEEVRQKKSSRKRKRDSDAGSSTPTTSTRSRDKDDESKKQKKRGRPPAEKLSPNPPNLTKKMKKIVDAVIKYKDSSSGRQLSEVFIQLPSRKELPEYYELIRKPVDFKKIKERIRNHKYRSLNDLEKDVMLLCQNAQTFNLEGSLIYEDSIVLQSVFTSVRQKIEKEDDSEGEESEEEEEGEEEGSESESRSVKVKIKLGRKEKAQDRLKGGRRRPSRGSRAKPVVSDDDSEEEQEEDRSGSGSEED
How it was run: (§1)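 Degradation measured as loss of nuclear BRM or BRG1 staining in SW1573 cells after 20 h compound exposure. Signal per cell was imaged and normalized to a known degrader; curves with floating maximum yielded IC50 and Dmax.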

[2] = biological target: BRM (Homo sapiens, UniProt P51531); experiment: Immunofluorescence assay for BRM degradation in SW1573 cells; type: cell-based; set-up: treated overnight at 4° C. with either BRM primary antibody (Cell signaling Cat #11966) or BRG primary antibody; endogenous in cells; host or cells: SW1573; settings: 20 hours incubation; for DC50: immunofluorescence mean nuclear signal, read-out: BRM IF Degradation IC50; for BRM IF Degradation Sinf (%): normalized to a known degrader control
Sequence of BRM (P51531 whole entry): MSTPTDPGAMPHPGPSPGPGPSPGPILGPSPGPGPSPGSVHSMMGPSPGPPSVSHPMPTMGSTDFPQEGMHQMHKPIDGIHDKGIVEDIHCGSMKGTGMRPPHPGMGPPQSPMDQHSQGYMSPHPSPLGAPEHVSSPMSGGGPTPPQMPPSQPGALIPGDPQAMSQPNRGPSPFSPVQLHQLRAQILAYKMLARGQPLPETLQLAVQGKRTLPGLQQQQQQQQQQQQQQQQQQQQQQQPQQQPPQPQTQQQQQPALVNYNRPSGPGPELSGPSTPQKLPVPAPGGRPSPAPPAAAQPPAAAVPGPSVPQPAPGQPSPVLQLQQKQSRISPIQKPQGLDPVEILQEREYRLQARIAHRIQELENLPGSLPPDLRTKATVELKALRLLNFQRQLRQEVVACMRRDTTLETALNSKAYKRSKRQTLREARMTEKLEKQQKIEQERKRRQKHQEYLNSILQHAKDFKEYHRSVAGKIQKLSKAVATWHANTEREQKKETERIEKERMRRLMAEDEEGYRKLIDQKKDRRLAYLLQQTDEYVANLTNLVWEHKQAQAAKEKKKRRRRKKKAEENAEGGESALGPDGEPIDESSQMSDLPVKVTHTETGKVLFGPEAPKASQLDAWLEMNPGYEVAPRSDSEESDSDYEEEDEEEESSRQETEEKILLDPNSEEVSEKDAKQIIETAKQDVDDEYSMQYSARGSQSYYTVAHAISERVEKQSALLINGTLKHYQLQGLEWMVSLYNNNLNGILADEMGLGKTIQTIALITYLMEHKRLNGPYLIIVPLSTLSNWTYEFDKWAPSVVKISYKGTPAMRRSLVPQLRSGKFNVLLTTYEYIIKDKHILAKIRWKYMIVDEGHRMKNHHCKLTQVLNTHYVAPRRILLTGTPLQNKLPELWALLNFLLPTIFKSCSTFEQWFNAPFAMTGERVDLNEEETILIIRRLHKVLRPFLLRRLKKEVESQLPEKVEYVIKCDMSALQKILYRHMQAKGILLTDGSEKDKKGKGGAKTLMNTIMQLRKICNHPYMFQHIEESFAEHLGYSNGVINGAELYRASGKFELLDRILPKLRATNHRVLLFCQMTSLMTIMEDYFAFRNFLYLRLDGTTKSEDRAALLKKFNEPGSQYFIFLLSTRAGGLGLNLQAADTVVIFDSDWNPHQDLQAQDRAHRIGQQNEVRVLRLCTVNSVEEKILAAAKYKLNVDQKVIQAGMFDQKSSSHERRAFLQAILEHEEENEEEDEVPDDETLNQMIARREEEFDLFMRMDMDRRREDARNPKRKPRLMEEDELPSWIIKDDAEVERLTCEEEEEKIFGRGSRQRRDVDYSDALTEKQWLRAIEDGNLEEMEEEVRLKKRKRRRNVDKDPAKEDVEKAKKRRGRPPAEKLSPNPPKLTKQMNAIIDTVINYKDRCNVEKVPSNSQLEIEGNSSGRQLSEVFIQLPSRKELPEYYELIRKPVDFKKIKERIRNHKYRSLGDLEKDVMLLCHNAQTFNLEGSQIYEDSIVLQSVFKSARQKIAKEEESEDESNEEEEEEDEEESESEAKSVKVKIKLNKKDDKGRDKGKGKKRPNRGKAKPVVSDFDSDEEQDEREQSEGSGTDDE
How it was run: as §1

**Q.** What does the source list for `Nc1nnc(-c2ccccc2O)cc1N1CC2CCC(C1)N2c1ccnc(C#CCN2CC3CC3C2)c1` (stereo not shown) [Compound 68, 2-[6-amino-5-[8-[2-[3-(3-azabicyclo[3.1.0]hexan-3-yl)prop-1-ynyl]-4-pyridyl]-3,8-diazabicyclo[3.2.1]octan-3-yl]pyridazin-3-yl]phenol;]?
**A.** DC50 [1]: < 10 nM; Dmax [1]: 30 to 70%; DC50 [2]: < 10 nM; BRM IF Degradation Sinf (%) [2]: F (F indicates −71%-−120%)

**Q.** Which results are given for `Nc1nnc(-c2ccccc2O)cc1N1CC2CCC(C1)N2c1ccnc(C#CCN2CCOC3(CC3)C2)c1` [Compound 124, 2-[6-amino-5-[8-[2-[3-(4-oxa-7-azaspiro[2.5]octan-7-yl)prop-1-ynyl]-4-pyridyl]-3,8-diazabicyclo[3.2.1]octan-3-yl]pyridazin-3-yl]phenol]?
**A.** DC50 [1]: > 100 nM; DC50 [2]: < 10 nM; BRM IF Degradation Sinf (%) [2]: E (E indicates −30%-−70%)

**Q.** With `CC1(F)CCCCN(CC#Cc2cc(N3C4CCC3CN(c3cc(-c5ccccc5O)nnc3N)C4)ccn2)C1` (stereo not shown) [Compound 243, 2-[6-amino-5-[8-[2-[3-(3-fluoro-3-methyl-azepan-1-yl)prop-1-ynyl]-4-pyridyl]-3,8-diazabicyclo[3.2.1]octan-3-yl]pyridazin-3-yl]phenol] as the molecule, how does the DC50 [1] read?
**A.** Its DC50 is under 10 nM.

**Q.** What about the Dmax [1] of the same molecule?
**A.** The Dmax was 30 to 70%.

**Q.** What about the DC50 [2] of the same molecule?
**A.** Its DC50 is 10 to 100 nM.

**Q.** What about the “BRM IF Degradation Sinf (%)” value [2] of the same molecule?
**A.** The value was “F (F indicates −71%-−120%)”.

**Q.** What does the source list for `Nc1nnc(-c2ccccc2O)cc1N1CC2CCC(C1)N2c1ccnc(C#CCN2CCC3CCC2C3)c1` (stereo not shown) [Compound 221, 2-[6-amino-5-[8-[2-[3-(2-azabicyclo[3.2.1]octan-2-yl)prop-1-ynyl]-4-pyridyl]-3,8-diazabicyclo[3.2.1]octan-3-yl]pyridazin-3-yl]phenol]?
**A.** DC50 [1]: < 10 nM; Dmax [1]: 30 to 70%; DC50 [2]: < 10 nM; BRM IF Degradation Sinf (%) [2]: E (E indicates −30%-−70%)

**Q.** `Nc1nnc(-c2ccccc2O)cc1N1CC2CCC(C1)N2c1ccnc(C#CCN2CCC(O)CC2)c1` [Compound 71, 1-[3-[4-[3-[3-amino-6-(2-hydroxyphenyl)pyridazin-4-yl]-3,8-diazabicyclo[3.2.1]octan-8-yl]-2-pyridyl]prop-2-ynyl]piperidin-4-ol] was tested. Which DC50 [1] did it give?
**A.** The DC50 was under 10 nM.

**Q.** What about the Dmax [1] of the same molecule?
**A.** The Dmax was 30 to 70%.

**Q.** And the DC50 [2]?
**A.** The DC50 was 10 to 100 nM.

**Q.** And the “BRM IF Degradation Sinf (%)” value [2]?
**A.** Its value is “E (E indicates −30%-−70%)”.

**Q.** Which results are given for `Nc1nnc(-c2ccccc2O)cc1N1CC2CCC(C1)N2c1ccnc(C#CCN2CC(C(F)F)C2)c1` [Compound 95, 2-[6-amino-5-[8-[2-[3-[3-(difluoromethyl)azetidin-1-yl]prop-1-ynyl]-4-pyridyl]-3,8-diazabicyclo[3.2.1]octan-3-yl]pyridazin-3-yl]phenol]?
**A.** DC50 [1]: < 10 nM; Dmax [1]: 30 to 70%; DC50 [2]: < 10 nM; BRM IF Degradation Sinf (%) [2]: E (E indicates −30%-−70%)

**Q.** Which results are given for `Nc1nnc(-c2ccccc2O)cc1N1CC2CCC(C1)N2c1ccnc(C#CCN2CC3CC2(CO)C3)c1` [Compound 116, 2-[6-amino-5-[8-[2-[3-[1-(hydroxymethyl)-2-azabicyclo[2.1.1]hexan-2-yl]prop-1-ynyl]-4-pyridyl]-3,8-diazabicyclo[3.2.1]octan-3-yl]pyridazin-3-yl]phenol]?
**A.** DC50 [1]: < 10 nM; Dmax [1]: 0 to 30%; DC50 [2]: 10 to 100 nM; BRM IF Degradation Sinf (%) [2]: E (E indicates −30%-−70%)

**Q.** With `COC1C2CCC1N(CC#Cc1cc(N3C4CCC3CN(c3cc(-c5ccccc5O)nnc3N)C4)ccn1)C2` (stereo not shown) [Compound 82, 2-[6-amino-5-[8-[2-[3-(7-methoxy-2-azabicyclo[2.2.1]heptan-2-yl)prop-1-ynyl]-4-pyridyl]-3,8-diazabicyclo[3.2.1]octan-3-yl]pyridazin-3-yl]phenol] as the molecule, how does the DC50 [1] read?
**A.** The DC50 was under 10 nM.

**Q.** And the Dmax [1]?
**A.** Its Dmax is 30 to 70%.

**Q.** What about the DC50 [2] of the same molecule?
**A.** The DC50 was under 10 nM.

**Q.** And the “BRM IF Degradation Sinf (%)” value [2]?
**A.** The value was “E (E indicates −30%-−70%)”.

**Q.** What does the source list for `Nc1nnc(-c2ccccc2O)cc1N1CC2CCC(C1)N2c1ccnc(C#CCN2CC3CC2CC3(F)F)c1` (stereo not shown) [Compound 143, 2-[6-amino-5-[8-[2-[3-(5,5-difluoro-2-azabicyclo[2.2.1]heptan-2-yl)prop-1-ynyl]-4-pyridyl]-3,8-diazabicyclo[3.2.1]octan-3-yl]pyridazin-3-yl]phenol]?
**A.** DC50 [1]: < 10 nM; Dmax [1]: 0 to 30%; DC50 [2]: < 10 nM; BRM IF Degradation Sinf (%) [2]: E (E indicates −30%-−70%)

**Q.** How did the DC50 [1] turn out when `Nc1nnc(-c2ccccc2O)cc1N1CC2CCC(C1)N2c1ccnc(C#CCN2CCC3(CCOC3)C2)c1` (stereo not shown) [Compound 140, 2-[6-amino-5-[8-[2-[3-(2-oxa-7-azaspiro[4.4]nonan-7-yl)prop-1-ynyl]-4-pyridyl]-3,8-diazabicyclo[3.2.1]octan-3-yl]pyridazin-3-yl]phenol] was run?
**A.** The DC50 was under 10 nM.

**Q.** What about the Dmax [1] of the same molecule?
**A.** The Dmax was 30 to 70%.

**Q.** And the DC50 [2]?
**A.** The DC50 was under 10 nM.

**Q.** And the “BRM IF Degradation Sinf (%)” value [2]?
**A.** The value was “F (F indicates −71%-−120%)”.

**Q.** `Nc1nnc(-c2ccccc2O)cc1N1CC2CCC(C1)N2c1ccnc(C#CCN2CC3CC(CO)CC32)c1` (stereo not shown) [Compound 217, 2-[6-amino-5-[8-[2-[3-[3-(hydroxymethyl)-6-azabicyclo[3.2.0]heptan-6-yl]prop-1-ynyl]-4-pyridyl]-3,8-diazabicyclo[3.2.1]octan-3-yl]pyridazin-3-yl]phenol] was tested. Which DC50 [1] did it give?
**A.** The DC50 was 10 to 100 nM.

**Q.** What about the Dmax [1] of the same molecule?
**A.** Its Dmax is 30 to 70%.

**Q.** And the DC50 [2]?
**A.** Its DC50 is 10 to 100 nM.

**Q.** What about the “BRM IF Degradation Sinf (%)” value [2] of the same molecule?
**A.** Its value is “E (E indicates −30%-−70%)”.

**Q.** `Nc1nnc(-c2ccccc2O)cc1N1CC2CCC(C1)N2c1ccnc(C#CCN2CCC3COCC3C2)c1` (stereo not shown) [Compound 88, 2-[5-[8-[2-[3-(3,3a,4,6,7,7a-hexahydro-1H-furo[3,4-c]pyridin-5-yl)prop-1-ynyl]-4-pyridyl]-3,8-diazabicyclo[3.2.1]octan-3-yl]-6-amino-pyridazin-3-yl]phenol] was tested. Which DC50 [1] did it give?
**A.** The DC50 was under 10 nM.

**Q.** What about the Dmax [1] of the same molecule?
**A.** Its Dmax is 0 to 30%.

**Q.** What about the DC50 [2] of the same molecule?
**A.** Its DC50 is under 10 nM.

**Q.** And the “BRM IF Degradation Sinf (%)” value [2]?
**A.** Its value is “E (E indicates −30%-−70%)”.

**Q.** Which results are given for `Nc1nnc(-c2ccccc2O)cc1N1CC2CCC(C1)N2c1ccnc(C#CCN2C3CCC2(CO)CC3)c1` [Compound 121, 2-[6-amino-5-[8-[2-[3-[1-(hydroxymethyl)-7-azabicyclo[2.2.1]heptan-7-yl]prop-1-ynyl]-4-pyridyl]-3,8-diazabicyclo[3.2.1]octan-3-yl]pyridazin-3-yl]phenol]?
**A.** DC50 [1]: > 100 nM; Dmax [1]: 30 to 70%; DC50 [2]: < 10 nM; BRM IF Degradation Sinf (%) [2]: E (E indicates −30%-−70%)

**Q.** How did the DC50 [1] turn out when `Nc1nnc(-c2ccccc2O)cc1N1CC2CCC(C1)N2c1ccnc(C#CCN2CCC[C@@H]2CO)c1` [Compound 65, 2-[6-amino-5-[8-[2-[3-[(2R)-2-(hydroxymethyl)pyrrolidin-1-yl]prop-1-ynyl]-4-pyridyl]-3,8-diazabicyclo[3.2.1]octan-3-yl]pyridazin-3-yl]phenol] was run?
**A.** The DC50 was 10 to 100 nM.

**Q.** And the Dmax [1]?
**A.** Its Dmax is 0 to 30%.

**Q.** What about the DC50 [2] of the same molecule?
**A.** The DC50 was under 10 nM.

**Q.** What about the “BRM IF Degradation Sinf (%)” value [2] of the same molecule?
**A.** The value was “E (E indicates −30%-−70%)”.

**Q.** What does the source list for `Nc1nnc(-c2ccccc2O)cc1N1CC2CCC(C1)N2c1ccnc(C#CCN2CCC[C@@H]3OCC[C@@H]32)c1` [Compound 90, 2-[5-[8-[2-[3-[(3aS,7aS)-3,3a,5,6,7,7a-hexahydro-2H-furo[3,2-b]pyridin-4-yl]prop-1-ynyl]-4-pyridyl]-3,8-diazabicyclo[3.2.1]octan-3-yl]-6-amino-pyridazin-3-yl]phenol]?
**A.** DC50 [1]: 10 to 100 nM; Dmax [1]: 0 to 30%; DC50 [2]: 10 to 100 nM; BRM IF Degradation Sinf (%) [2]: E (E indicates −30%-−70%)

**Q.** `Nc1nnc(-c2ccccc2O)cc1N1CC2CCC(C1)N2c1ccnc(C#CCN2CCC3CC2CO3)c1` (stereo not shown) [Compound 104, 2-[6-amino-5-[8-[2-[3-(6-oxa-2-azabicyclo[3.2.1]octan-2-yl)prop-1-ynyl]-4-pyridyl]-3,8-diazabicyclo[3.2.1]octan-3-yl]pyridazin-3-yl]phenol] was tested. Which DC50 [1] did it give?
**A.** Its DC50 is under 10 nM.

**Q.** What about the Dmax [1] of the same molecule?
**A.** Its Dmax is 0 to 30%.

**Q.** And the DC50 [2]?
**A.** The DC50 was under 10 nM.

**Q.** And the “BRM IF Degradation Sinf (%)” value [2]?
**A.** Its value is “E (E indicates −30%-−70%)”.

**Q.** With `Nc1nnc(-c2ccccc2O)cc1N1CC2CCC(C1)N2c1ccnc(C#CCN2CC3(CC(F)C3)C2)c1` [Compound 97, 2-[6-amino-5-[8-[2-[3-(6-fluoro-2-azaspiro[3.3]heptan-2-yl)prop-1-ynyl]-4-pyridyl]-3,8-diazabicyclo[3.2.1]octan-3-yl]pyridazin-3-yl]phenol] as the molecule, how does the DC50 [1] read?
**A.** The DC50 was under 10 nM.

**Q.** What about the Dmax [1] of the same molecule?
**A.** Its Dmax is 30 to 70%.

**Q.** What about the DC50 [2] of the same molecule?
**A.** The DC50 was under 10 nM.

**Q.** What about the “BRM IF Degradation Sinf (%)” value [2] of the same molecule?
**A.** Its value is “F (F indicates −71%-−120%)”.

**Q.** Which DC50 [1] does the source give for `CNC(=O)C1CCCCN1CC#Cc1cc(N2C3CCC2CN(c2cc(-c4ccccc4O)nnc2N)C3)ccn1` (stereo not shown) [Compound 96, 1-[3-[4-[3-[3-amino-6-(2-hydroxyphenyl)pyridazin-4-yl]-3,8-diazabicyclo[3.2.1]octan-8-yl]-2-pyridyl]prop-2-ynyl]-N-methyl-piperidine-2-carboxamide] here?
**A.** The DC50 was 10 to 100 nM.

**Q.** What about the Dmax [1] of the same molecule?
**A.** The Dmax was 0 to 30%.

**Q.** What about the DC50 [2] of the same molecule?
**A.** Its DC50 is over 100 nM.

**Q.** And the “BRM IF Degradation Sinf (%)” value [2]?
**A.** Its value is “E (E indicates −30%-−70%)”.

**Q.** Which results are given for `Nc1nnc(-c2ccccc2O)cc1N1CC2CCC(C1)N2c1ccnc(C#CCN2CC3CNCC3C2)c1` (stereo not shown) [Compound 54, 2-[5-[8-[2-[3-(2,3,3a,4,6,6a-hexahydro-1H-pyrrolo[3,4-c]pyrrol-5-yl)prop-1-ynyl]-4-pyridyl]-3,8-diazabicyclo[3.2.1]octan-3-yl]-6-amino-pyridazin-3-yl]phenol]?
**A.** DC50 [1]: > 100 nM; Dmax [1]: 30 to 70%; DC50 [2]: > 100 nM; BRM IF Degradation Sinf (%) [2]: F (F indicates −71%-−120%)

**Q.** Which results are given for `Nc1nnc(-c2ccccc2O)cc1N1CC2CCC(C1)N2c1ccnc(C#CCN2CCC3(CCCO3)C2)c1` (stereo not shown) [Compound 44, 2-[6-amino-5-[8-[2-[3-(1-oxa-7-azaspiro[4.4]nonan-7-yl)prop-1-ynyl]-4-pyridyl]-3,8-diazabicyclo[3.2.1]octan-3-yl]pyridazin-3-yl]phenol]?
**A.** DC50 [1]: 10 to 100 nM; Dmax [1]: 30 to 70%; DC50 [2]: < 10 nM; BRM IF Degradation Sinf (%) [2]: E (E indicates −30%-−70%)
